Results reported in ChEMBL document CHEMBL4507263, “Data for DCP probe BAY-474” (2021).

Experiments:
[1] = molecular target: RAC-beta serine/threonine-protein kinase (Homo sapiens) (UniProt P31751); test: PKBbeta (h) Millipore kinase activity assay; conditions: Compound concentration 1.0 uM
[2] = molecular target: Mitogen-activated protein kinase 1 (Homo sapiens) (UniProt P28482); test: MAPK1 (h) Millipore kinase activity assay; conditions: Compound concentration 1.0 uM
[3] = molecular target: Rho-associated protein kinase 1 (Homo sapiens) (UniProt Q13464); test: ROCK-I (h) Millipore kinase activity assay; conditions: Compound concentration 1.0 uM
[4] = molecular target: Voltage-dependent N-type calcium channel subunit alpha-1B (Homo sapiens) (UniProt Q00975); test: Inhibition of Calcium Channel N-Type at 10 µM in the Eurofins-Panlabs radioligand binding assay (Eurofins_assay_216000); conditions: Rattus norvegicus; Compound concentration 10.0 uM
[5] = molecular target: Serine/threonine-protein kinase TAO3 (Homo sapiens) (UniProt Q9H2K8); test: TAO3 (h) Millipore kinase activity assay; conditions: Compound concentration 1.0 uM
[6] = molecular target: Ephrin type-A receptor 7 (Homo sapiens) (UniProt Q15375); test: EphA7 (h) Millipore kinase activity assay; conditions: Compound concentration 1.0 uM
[7] = molecular target: Ribosomal protein S6 kinase alpha-3 (Homo sapiens, UniProt P51812); test: Rsk2 (h) Millipore kinase activity assay
[8] = molecular target: Substance-P receptor (Homo sapiens) (UniProt P25103); test: Inhibition of Tachykinin NK1 at 10 µM in the Eurofins-Panlabs radioligand binding assay (Eurofins_assay_255520); set-up: ligand concentration 0.8 nM; conditions: Compound concentration 10.0 uM
[9] = molecular target: Fibroblast growth factor receptor 4 (Homo sapiens) (UniProt P22455); test: FGFR4 (h) Millipore kinase activity assay; conditions: Compound concentration 1.0 uM
[10] = molecular target: Calcium/calmodulin-dependent protein kinase type II subunit delta (Homo sapiens) (UniProt Q13557); test: CaMKIIdelta (h) Millipore kinase activity assay; conditions: Compound concentration 1.0 uM
[11] = molecular target: Protein-tyrosine kinase 6 (Homo sapiens) (UniProt Q13882); test: BRK (h) Millipore kinase activity assay; conditions: Compound concentration 1.0 uM
[12] = molecular target: Tyrosine-protein kinase SYK (Homo sapiens) (UniProt P43405); test: Syk (h) Millipore kinase activity assay; conditions: Compound concentration 1.0 uM
[13] = molecular target: Casein kinase II subunit alpha (Homo sapiens) (UniProt P68400); test: CK2 (h) Millipore kinase activity assay; conditions: Compound concentration 1.0 uM
[14] = molecular target: Endothelin receptor type B (Homo sapiens) (UniProt P24530); conditions: Compound concentration 10.0 uM
[15] = system: Tyrosine-protein kinase ABL1 (Homo sapiens), P00519 [Q252H]; conditions: Compound concentration 1000.0 nM
[16] = molecular target: Serine/threonine-protein kinase BRSK1 (Homo sapiens) (UniProt Q8TDC3); conditions: Compound concentration 1000.0 nM
[17] = molecular target: Activin receptor type-1 (Homo sapiens) (UniProt Q04771); conditions: Compound concentration 1000.0 nM
[18] = molecular target: Testis-specific serine/threonine-protein kinase 3 (Homo sapiens) (UniProt Q96PN8); conditions: Compound concentration 1000.0 nM
[19] = molecular target: NUAK family SNF1-like kinase 1 (Homo sapiens) (UniProt O60285); conditions: Compound concentration 1000.0 nM
[20] = molecular target: Serine/threonine-protein kinase Chk2 (Homo sapiens) (UniProt O96017); conditions: Compound concentration 1000.0 nM
[21] = molecular target: Serine/threonine-protein kinase Nek6 (Homo sapiens) (UniProt Q9HC98); conditions: Compound concentration 1000.0 nM
[22] = molecular target: Homeodomain-interacting protein kinase 1 (Homo sapiens) (UniProt Q86Z02); conditions: Compound concentration 1000.0 nM
[23] = GPCRScan assay: inhibition of GABA/PBR; set-up: species or system Rattus norvegicus; radioligand conc. used [nm] 0.3 – 2.0, parental cells brain tissue
[24] = molecular target: Phosphatidylinositol 4-kinase beta (Homo sapiens) (UniProt Q9UBF8); conditions: Compound concentration 1000.0 nM
[25] = molecular target: GABA-A receptor; anion channel (Rattus norvegicus) (UniProt O09028+P15431+P18506+P18508+P19969+P20236+P23574+P23576+P28471+P28473+P30191+P62813+P63079+P63138+Q91ZM7+Q9ES14); conditions: Compound concentration 10.0 uM
[26] = molecular target: Serine/threonine-protein kinase tousled-like 2 (Homo sapiens) (UniProt Q86UE8); conditions: Compound concentration 1000.0 nM
[27] = molecular target: Cyclin-dependent kinase 4 (Homo sapiens) (UniProt P11802); conditions: Compound concentration 1000.0 nM
[28] = molecular target: Serine/threonine-protein kinase PLK2 (Homo sapiens) (UniProt Q9NYY3); conditions: Compound concentration 1000.0 nM
[29] = molecular target: Tyrosine-protein kinase receptor UFO (Homo sapiens) (UniProt P30530); conditions: Compound concentration 1000.0 nM
[30] = molecular target: Dual specificity protein kinase CLK2 (Homo sapiens) (UniProt P49760); conditions: Compound concentration 1000.0 nM
[31] = molecular target: Ribosomal protein S6 kinase alpha-5 (Homo sapiens) (UniProt O75582); conditions: Compound concentration 1000.0 nM
[32] = molecular target: Casein kinase I isoform gamma-1 (Homo sapiens) (UniProt Q9HCP0); conditions: Compound concentration 1000.0 nM
[33] = molecular target: Mitogen-activated protein kinase kinase kinase 10 (Homo sapiens) (UniProt Q02779); conditions: Compound concentration 1000.0 nM
[34] = molecular target: Wee1-like protein kinase 2 (Homo sapiens) (UniProt P0C1S8); conditions: Compound concentration 1000.0 nM
[35] = system: Epidermal growth factor receptor (Homo sapiens), P00533 [G719C]; conditions: Compound concentration 1000.0 nM
[36] = molecular target: Serine/threonine-protein kinase N2 (Homo sapiens) (UniProt Q16513); conditions: Compound concentration 1000.0 nM
Chain of Serine/threonine-protein kinase N2 (Homo sapiens) (Q16513 whole entry, looked up): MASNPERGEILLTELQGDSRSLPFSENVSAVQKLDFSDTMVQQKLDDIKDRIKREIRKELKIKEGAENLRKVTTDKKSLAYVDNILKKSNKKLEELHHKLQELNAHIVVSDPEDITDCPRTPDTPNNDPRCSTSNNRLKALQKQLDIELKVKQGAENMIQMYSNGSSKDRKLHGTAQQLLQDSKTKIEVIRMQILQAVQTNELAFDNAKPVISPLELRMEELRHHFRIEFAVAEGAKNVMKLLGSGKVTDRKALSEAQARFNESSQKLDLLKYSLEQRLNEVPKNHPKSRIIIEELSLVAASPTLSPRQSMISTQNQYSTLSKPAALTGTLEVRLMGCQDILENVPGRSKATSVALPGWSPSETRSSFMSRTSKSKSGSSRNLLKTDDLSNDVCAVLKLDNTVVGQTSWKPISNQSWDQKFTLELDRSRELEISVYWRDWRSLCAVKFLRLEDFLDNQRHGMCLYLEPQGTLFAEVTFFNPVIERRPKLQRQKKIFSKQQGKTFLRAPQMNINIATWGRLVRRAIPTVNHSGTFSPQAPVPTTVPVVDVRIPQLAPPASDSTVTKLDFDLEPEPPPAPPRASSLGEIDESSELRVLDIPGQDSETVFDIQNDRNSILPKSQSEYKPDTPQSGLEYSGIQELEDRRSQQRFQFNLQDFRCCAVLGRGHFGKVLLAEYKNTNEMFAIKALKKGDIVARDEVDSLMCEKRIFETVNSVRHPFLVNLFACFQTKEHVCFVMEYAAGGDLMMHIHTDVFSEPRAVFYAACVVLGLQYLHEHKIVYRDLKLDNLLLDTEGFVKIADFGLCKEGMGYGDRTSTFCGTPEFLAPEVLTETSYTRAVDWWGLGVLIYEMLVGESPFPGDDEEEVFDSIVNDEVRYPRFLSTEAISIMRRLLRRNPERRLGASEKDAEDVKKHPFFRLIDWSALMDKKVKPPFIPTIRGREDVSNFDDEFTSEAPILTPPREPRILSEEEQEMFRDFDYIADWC

Chain of Ribosomal protein S6 kinase alpha-3 (P51812 whole entry): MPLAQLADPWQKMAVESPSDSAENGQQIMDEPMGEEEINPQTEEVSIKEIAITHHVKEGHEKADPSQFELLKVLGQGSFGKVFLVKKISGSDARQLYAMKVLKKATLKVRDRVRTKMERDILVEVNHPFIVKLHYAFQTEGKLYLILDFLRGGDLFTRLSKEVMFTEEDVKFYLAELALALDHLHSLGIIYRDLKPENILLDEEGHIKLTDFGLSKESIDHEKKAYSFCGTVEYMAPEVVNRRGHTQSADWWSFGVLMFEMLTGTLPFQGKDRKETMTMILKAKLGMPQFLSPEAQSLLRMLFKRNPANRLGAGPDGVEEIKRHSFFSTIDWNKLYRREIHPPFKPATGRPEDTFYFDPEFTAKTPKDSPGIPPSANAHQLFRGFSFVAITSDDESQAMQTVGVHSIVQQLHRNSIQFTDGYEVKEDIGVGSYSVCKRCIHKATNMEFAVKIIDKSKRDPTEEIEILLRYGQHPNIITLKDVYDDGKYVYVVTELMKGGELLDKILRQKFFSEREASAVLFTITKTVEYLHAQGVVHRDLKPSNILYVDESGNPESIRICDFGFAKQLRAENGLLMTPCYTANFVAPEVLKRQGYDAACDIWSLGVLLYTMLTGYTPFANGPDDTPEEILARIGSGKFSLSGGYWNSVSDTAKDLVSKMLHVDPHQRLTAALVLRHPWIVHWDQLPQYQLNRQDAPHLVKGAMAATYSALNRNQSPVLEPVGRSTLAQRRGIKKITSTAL
Chain of Homeodomain-interacting protein kinase 1 (Homo sapiens) (Q86Z02 whole entry, looked up): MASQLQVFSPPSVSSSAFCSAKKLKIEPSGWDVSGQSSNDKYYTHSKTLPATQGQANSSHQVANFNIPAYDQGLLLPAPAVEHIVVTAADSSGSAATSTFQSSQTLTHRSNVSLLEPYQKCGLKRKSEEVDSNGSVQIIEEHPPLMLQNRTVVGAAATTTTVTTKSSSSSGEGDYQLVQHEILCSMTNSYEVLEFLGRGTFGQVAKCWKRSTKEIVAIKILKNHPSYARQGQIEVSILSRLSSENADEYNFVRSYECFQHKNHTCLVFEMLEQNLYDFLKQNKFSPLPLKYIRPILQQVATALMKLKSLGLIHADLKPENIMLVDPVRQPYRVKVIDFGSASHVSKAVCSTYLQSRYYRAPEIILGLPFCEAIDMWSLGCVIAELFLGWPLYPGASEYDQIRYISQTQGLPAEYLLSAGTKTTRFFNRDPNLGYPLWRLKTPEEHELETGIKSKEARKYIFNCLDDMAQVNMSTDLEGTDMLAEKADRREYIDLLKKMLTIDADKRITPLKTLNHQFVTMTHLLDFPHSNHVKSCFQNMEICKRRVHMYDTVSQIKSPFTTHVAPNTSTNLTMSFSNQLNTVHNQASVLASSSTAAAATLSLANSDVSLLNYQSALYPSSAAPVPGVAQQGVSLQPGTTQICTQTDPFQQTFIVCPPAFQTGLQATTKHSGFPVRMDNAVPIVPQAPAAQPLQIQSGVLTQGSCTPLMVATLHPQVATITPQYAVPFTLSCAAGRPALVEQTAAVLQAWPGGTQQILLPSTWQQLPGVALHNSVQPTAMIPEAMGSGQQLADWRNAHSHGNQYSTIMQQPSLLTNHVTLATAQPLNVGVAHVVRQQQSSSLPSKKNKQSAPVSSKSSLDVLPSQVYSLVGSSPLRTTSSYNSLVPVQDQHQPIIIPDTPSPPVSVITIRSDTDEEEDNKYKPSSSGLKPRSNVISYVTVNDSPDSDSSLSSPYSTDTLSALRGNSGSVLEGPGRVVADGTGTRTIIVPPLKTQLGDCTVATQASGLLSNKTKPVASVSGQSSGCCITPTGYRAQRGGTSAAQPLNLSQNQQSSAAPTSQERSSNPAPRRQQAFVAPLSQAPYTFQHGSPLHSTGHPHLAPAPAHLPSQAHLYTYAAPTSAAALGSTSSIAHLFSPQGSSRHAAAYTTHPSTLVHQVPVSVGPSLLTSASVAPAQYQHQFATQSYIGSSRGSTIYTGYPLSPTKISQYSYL
Chain of Fibroblast growth factor receptor 4 (Homo sapiens) (P22455 22-802 limits assumed): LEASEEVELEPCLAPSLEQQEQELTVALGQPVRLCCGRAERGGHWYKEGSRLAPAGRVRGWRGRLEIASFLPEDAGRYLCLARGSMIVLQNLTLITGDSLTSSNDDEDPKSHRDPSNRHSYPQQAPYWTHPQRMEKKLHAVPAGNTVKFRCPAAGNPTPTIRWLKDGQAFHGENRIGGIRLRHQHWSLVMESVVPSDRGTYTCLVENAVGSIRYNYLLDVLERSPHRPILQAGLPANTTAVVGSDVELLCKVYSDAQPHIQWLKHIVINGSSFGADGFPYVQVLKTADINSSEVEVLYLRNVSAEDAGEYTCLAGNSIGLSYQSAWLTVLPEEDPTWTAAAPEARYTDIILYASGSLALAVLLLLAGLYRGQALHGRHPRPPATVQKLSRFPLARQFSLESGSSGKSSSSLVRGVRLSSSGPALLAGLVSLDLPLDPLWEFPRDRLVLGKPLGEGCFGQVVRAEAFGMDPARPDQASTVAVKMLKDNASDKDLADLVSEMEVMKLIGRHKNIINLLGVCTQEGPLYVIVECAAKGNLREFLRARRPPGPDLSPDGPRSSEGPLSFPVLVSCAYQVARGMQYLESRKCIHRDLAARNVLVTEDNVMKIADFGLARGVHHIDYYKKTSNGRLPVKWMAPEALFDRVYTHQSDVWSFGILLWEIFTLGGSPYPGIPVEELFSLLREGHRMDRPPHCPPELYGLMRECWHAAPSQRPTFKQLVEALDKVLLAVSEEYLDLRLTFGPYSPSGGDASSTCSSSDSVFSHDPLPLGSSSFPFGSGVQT
Chain of Testis-specific serine/threonine-protein kinase 3 (Homo sapiens) (Q96PN8 whole entry): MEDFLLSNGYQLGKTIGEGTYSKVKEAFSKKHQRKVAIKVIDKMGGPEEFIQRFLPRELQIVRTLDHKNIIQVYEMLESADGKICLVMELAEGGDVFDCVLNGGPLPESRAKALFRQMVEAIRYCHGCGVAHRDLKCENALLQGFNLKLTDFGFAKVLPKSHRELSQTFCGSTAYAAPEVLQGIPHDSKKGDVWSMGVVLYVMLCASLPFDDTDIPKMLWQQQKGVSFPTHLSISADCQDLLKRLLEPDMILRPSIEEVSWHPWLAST
Chain of Tyrosine-protein kinase receptor UFO (Homo sapiens) (P30530 whole entry): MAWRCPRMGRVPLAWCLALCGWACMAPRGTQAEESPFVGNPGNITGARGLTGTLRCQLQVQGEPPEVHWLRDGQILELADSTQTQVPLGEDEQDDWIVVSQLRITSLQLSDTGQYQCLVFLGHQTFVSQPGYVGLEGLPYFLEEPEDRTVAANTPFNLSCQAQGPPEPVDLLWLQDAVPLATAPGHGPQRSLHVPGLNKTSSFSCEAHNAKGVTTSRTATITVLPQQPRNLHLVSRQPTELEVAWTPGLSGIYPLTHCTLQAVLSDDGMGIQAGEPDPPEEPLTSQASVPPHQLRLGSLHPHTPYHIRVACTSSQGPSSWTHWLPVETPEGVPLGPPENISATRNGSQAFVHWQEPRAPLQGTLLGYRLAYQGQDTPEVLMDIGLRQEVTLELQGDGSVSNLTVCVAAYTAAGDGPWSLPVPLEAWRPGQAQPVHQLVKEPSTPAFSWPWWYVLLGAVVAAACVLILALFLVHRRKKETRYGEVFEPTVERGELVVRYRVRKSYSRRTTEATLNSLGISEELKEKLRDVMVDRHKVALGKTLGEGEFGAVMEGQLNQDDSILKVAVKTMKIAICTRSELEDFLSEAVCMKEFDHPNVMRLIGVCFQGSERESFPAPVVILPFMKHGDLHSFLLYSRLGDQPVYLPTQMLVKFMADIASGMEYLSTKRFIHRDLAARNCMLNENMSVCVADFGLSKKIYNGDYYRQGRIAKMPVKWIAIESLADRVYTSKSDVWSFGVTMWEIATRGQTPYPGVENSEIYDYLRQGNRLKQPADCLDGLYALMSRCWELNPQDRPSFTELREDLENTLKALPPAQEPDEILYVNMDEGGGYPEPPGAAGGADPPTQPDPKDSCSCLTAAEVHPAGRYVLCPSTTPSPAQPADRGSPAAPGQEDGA

CC1=C(C#N)C(c2ccc3[nH]nc(C)c3c2)C(C#N)=C(C)N1 [BAY-474]
900 nM: IC50 [7]
inactive: inhibition [1] -5% | inhibition [2] 4% | inhibition [3] 1% | inhibition [4] 6% | inhibition [5] -8% | inhibition [6] -2% | inhibition ([7]; Compound concentration 1.0 uM) 46% | inhibition [8] -4% | inhibition [9] 18% | inhibition [10] 3% | inhibition [11] -7% | inhibition [12] 8% | inhibition [13] -8% | inhibition [14] 18%

CC1=C(C#N)[C@@H](c2ccc3[nH]nc(C)c3c2)C(C#N)=C(c2ccc(Cl)cc2)N1 [BAY-827]
2400 nM: Ki [23]
5.67: pKi [23]
inactive: residual activity [16] 100% | residual activity [17] 100% | residual activity [18] 100% | residual activity [19] 100% | residual activity [20] 100% | residual activity [21] 100% | residual activity [22] 56.7% | residual activity [24] 95.1% | inhibition [25] 16.9% | residual activity [26] 100% | residual activity [27] 96.1% | residual activity [28] 100% | residual activity [29] 100% | residual activity [30] 100% | residual activity [31] 100% | residual activity [32] 100% | residual activity [33] 100% | residual activity [34] 100% | residual activity [35] 100% | residual activity [36] 74.6%
active: residual activity [15] 43.8%
